Laboratory results reported in patent US10150793B2, “Antagonists of CB1 receptor” (INSERM (Institut National de la Santé et de la Recherche …, priority 2011, dated 2018).

Assays:
[1] = Allopregnanolone and epiallopregnanolone in nucleus accumbens after high dose injection (GC/MS); format: in vivo, Wistar rats; settings: 50 mg/kg; 30 min after the injections
Method: The capacity of a compound of the invention to be or not to be converted into active pregnenolone downstream derivatives may be evaluated by administering this compound, for example by injecting 50 mg/kg, to a rat, sacrificing the rat 30 min later, measuring the concentration of allopregnanolone and epiallopregnanolone in nucleus accumbens of rat by GC/MS and comparing these concentrations to allopregnanolone and epiallopregnanolone in a rat whose has been injected only a vehicle or pregnenolone.
The concentrations of allopregnanolone and epiallopregnanolone were measured in nucleus accumbens of individual animal by GC/MS 30 min after the injections.

CB1 receptor [2] = target: T1, CB1 receptor (Mus musculus, UniProt P47746); assay: THC-induced cannabinoid tetrad (body temperature, locomotor activity, catalepsy, analgesia); format: in vivo, mice; design: tissue Charles River Laboratories (France) (animals); host or cells: living mice, whole animal
T1 sequence (P47746 whole entry): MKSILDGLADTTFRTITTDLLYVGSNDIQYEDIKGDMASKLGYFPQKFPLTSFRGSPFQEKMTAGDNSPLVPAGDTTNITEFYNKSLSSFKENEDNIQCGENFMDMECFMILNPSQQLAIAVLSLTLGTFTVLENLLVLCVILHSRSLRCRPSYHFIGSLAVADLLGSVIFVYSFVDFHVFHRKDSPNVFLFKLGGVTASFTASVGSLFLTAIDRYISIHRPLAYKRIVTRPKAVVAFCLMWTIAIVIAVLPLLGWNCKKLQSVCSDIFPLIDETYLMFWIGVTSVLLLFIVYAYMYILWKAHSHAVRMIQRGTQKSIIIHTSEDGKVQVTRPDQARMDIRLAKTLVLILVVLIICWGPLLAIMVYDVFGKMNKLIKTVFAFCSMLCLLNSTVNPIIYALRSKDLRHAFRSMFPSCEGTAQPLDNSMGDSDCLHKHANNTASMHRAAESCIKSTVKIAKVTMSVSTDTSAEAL

CB1 receptor [3] = target: T1, CB1 receptor; assay: THC-induced increase in food intake in mice; format: in vivo; design: tissue Charles River Laboratories (France) (animals); host or cells: living mice, whole animal; settings: for effect on THC-induced increase in food intake (hyperphagia) in mice: 24 h-food deprived C57B1/6 mice, THC 1 mg/kg, compound 2 mg/kg sc
Method: Food intake was evaluated by measuring consumption of food in the home cages of the animals. For each animal, 50-100 g of standard laboratory chow (U.A.R., France) was placed in the cleaned home cage. The remaining amount of food was weighted 1 h later and the amount of food consumed calculated.
Other pregnenolone derivatives (Table 4) for which the metabolism in downstream active steroids was reduced were tested for their ability to inhibit: 1. effects of the THC-induced cannabinoid tetrade (decrease in body temperature and in locomotor activity, (THC 10 mg/kg, compounds 6 mg/kg 15-30 min before THC) that is recognized as a sound method to evaluate the activation of the CB1 receptor; 2. THC-induced increase in food intake a typical effect of CB1 activation (THC between 0.5 and 1 mg/kg, compounds between 2 and 4 mg/kg 30 min before THC); 3. the increase in TNFalpha induced by LPS, another effects typical of CB1 […] (compounds 6 mg/kg 15 min before LPS). For each compound and each test independent groups of animals were used (at least n=6 per compound/per test).

CB1 receptor [4] = target: T1, CB1 receptor; assay: Object recognition task, THC-induced amnesia; format: in vivo, mice; design: tissue Charles River Laboratories (France) (animals); host or cells: living mice, whole animal
Method: Object recognition was measured in a two arms L-maze (size of each arm 30 cm length×4.5 cm width) in dim light condition (50-60 lux). Animals were individually tested for three consecutive days for 9 min-session each day, corresponding to habituation, training and test sessions. On day 1 (habituation session), mice were let explore the L maze with no object. On the second day (training session), two identical objects were presented at the end of the each arm of the maze. Although no preferences for arm of object appeared (data not shown) object and arms were randomized for each mouse/condition. On the 3rd day (test session), one of the familiar objects was replaced with a novel object and the total time spent exploring each of the two objects (novel and familiar) was computed. The time spent in each arm and the time spent exploring an object (familiar or novel) were recorded. Object exploration was defined as the orientation of the nose to the object at a distance of less than 2 cm. During the test session, a discrimination index was calculated as the difference between the times spent exploring either the novel or familiar object divided by the total time exploring the two objects. […]
In this example the inventors further analyzed the ability of pregnenolone to inhibit the effects of CB1 activation. […]

## CC(=O)[C@H]1CC[C@H]2[C@@H]3CC=C4C[C@@H](O)CC[C@]4(C)[C@H]3CC[C@]12C [Pregnenolone, 5-Pregnen-3β-ol-20-one]
[1]
  production of allopregnanolone and epiallopregnanolone in nucleus accumbens: allopregnanolone and epiallopregnanolone increased
CB1 receptor [2]; pregnenolone 6 mg/kg before THC, absence of AMG
  effect on THC-induced cannabinoid tetrad: decreased all the behaviours of the THC-induced cannabinoid tetrad
CB1 receptor [2]; pregnenolone 6 mg/kg, AMG 50 mg/kg, THC 10 mg/kg
  effect on the AMG enhancement of THC behavioural effects: completely reversed
CB1 receptor [2]; pregnenolone per se
  effect on locomotor activity, body temperature, catalepsy and pain threshold in the absence of THC: had no effect
CB1 receptor [3]
  effect on THC-induced increase in food intake (hyperphagia) in mice: decreased THC-induced hyperphagia
CB1 receptor [3]; listed as pregnenolone
  effect on THC-induced increase in food intake (hyperphagia) in mice: suppressed the increase in food intake
CB1 receptor [3]; dose response in 24 h-food deprived mice, 0.5 mg/kg dose was ineffective
  dose inhibiting THC-induced increase in food-intake (first effective dose): 1 mg/kg
CB1 receptor [4]; pregnenolone 6 mg/kg
  effect on memory retention in the absence of THC: did not induce any change in memory retention
CB1 receptor [4]; pregnenolone 6 mg/kg immediately after training, THC 10 mg/kg
  effect on amnesic effect of THC: strongly blunted the amnesic effect
